Tests used:
[1] = system: PN4 tumors; test: Alcian blue staining of treated PN4 tumors; format: in vivo, NOD/SCID mice; settings: day 85, vs control antibody or gemcitabine
Method: Increased cell differentiation of PN4 and PN8 tumors with FZD8-Fc treatment. Control and treated tumors from the OMP-PN4 xenograft study described above (Example 3) were harvested at the end of the study (day 85). Tumors were fixed in formalin, embedded in paraffin, and tumor sections of 4 μm thickness were cut. After deparaffinization and hydration, the sections were treated with aqueous acetic acid for 5 minutes at room temperature. The sections were then treated with 1% alcian blue in 3% aqueous acetic acid for 30 minutes and washed with water. Sections were counter-stained in neutral fast red, dehydrated and mounted. Using this method, sialomucins in the tissue samples stain blue and the background appears as pink or red.

[2] = system: PN21 pancreatic tumors; test: In vivo limiting dilution assay of treated PN21 tumors; parameters: species or system NOD/SCID mice; settings: day 72
Description: As described above in Example 3, a limiting dilution assays was used to assess the effect of treatment with FZD8-Fc alone or in combination with gemcitabine on solid tumor cancer stem cells in the PN21 pancreatic tumor model.
Control and treated tumors from the PN21 xenograft study described above were harvested at the end of the study. The tumors were processed and dissociated into single cells. […] The human cells in the suspension were harvested, counted, and stained for cell surface markers and appropriate cell doses (30, 90, and 270 cells) in FACS buffer were mixed in a 1:1 mixture with Matrigel and injected subcutaneously in NOD/SCID mice (10 mice per cell dose per treatment group). […]
At the desired time point, the percentage of mice with detectable tumors was determined in all groups injected with treated tumor cells and compared to the percentage of mice with detectable tumors in control treated cells. For example, the number of mice injected with 125 control antibody-treated tumor cells that have detectable tumors is determined and compared to the number of mice injected with 125 FZD8-Fc treated tumor cells that have detectable tumors.
On day 72 after injection of the cells, tumor take rates in the various groups were determined and the cancer stem cell frequency was calculated using L-Calc™ software (StemCell Technologies Inc.; www.stemcell.com).

## 54F03: Fri domain of human FZD8 fused to human IgG1 Fc with GRA linker; SEQ ID NO:1
[1]
  cells expressing sialomucins (alcian blue): increase in cells expressing sialomucins
[2]
  reduction of cancer stem cell frequency as compared to control antibody: four-fold

Source: US9157904B2, “Wnt antagonists and methods of treatment and screening” (OncoMed Pharmaceuticals, Inc., priority 2010, dated 2015)
